“Also recorded” adds a separate entry of the source. Read-outs that look alike come from different tables or passages of the source.

Assay [1] deals with isoproterenol challenged young and old mice. Nature of the assay: Mouse model of pediatric heart failure: cardiac growth (HW/BW) in response to isoproterenol with or without β-blocker. It counts as in vivo. Conditions: for pathologic growth response to isoproterenol: isoproterenol 7 days, β-blocker via subcutaneously implanted pump; for heart weight to body weight ratio (HW/BW), response to ISO: older mice; for heart weight to body weight ratio (HW/BW), response to ISO / cardiac growth response to ISO (HW/BW): isoproterenol 30 mg/kg/day 7 days, β-blocker in drinking water, versus same age ISO. The method, then:
(§1) Since a primary characteristic of human heart failure is endogenous catecholamine (epinephrine and norepinephrine; full β1 and β2 receptor agonists) excess, they challenged the mice with isoproterenol (an exogeous full β1 and β2 receptor agonist) for 7 days using a subcutaneous miniosmotic pump at a dose (30 mg/kg/day) that has previously been associated with cardiac hypertrophy in adult mice and has been used as a model of cardiac hypertrophy and heart failure in adult […]. Higher doses (120 mg/kg/day) for 14 days cause a dilated heart failure phenotype, providing further evidence that this is an appropriate HF model. Half the animals received the isoproterenol treatment and the other half were treated with placebo pumps filled with normal saline and vitamin C, the vehicle that the isoproterenol is dissolved in. The young and old animals were divided into 2 studies: one for carvedilol treatment and one for metoprolol treatment (the study design for each animal study is illustrated in FIG. 8). […] The amount of water consumed was measured on a daily basis and all groups consumed similar amounts of water. In a second study to further support hypothesis (i) above and provide evidence of a class effect among β1-selective antagonists, young mice were divided into 2 studies one for bisoprolol and one for nebivolol. […] After 7 days of treatment, the hearts were removed and assessed for cardiac growth in response to isoproterenol with or without the β-blocker. Protein was isolated from the hearts of young and old mice in the presence or absence of isopreterenol without any β-blocker treatment assessed for phosphorylation of phospholamban by Western blot as outlined above.

The next assay deals with β1 and β2 receptors. The conditions noted are these: cited from earlier work; for β1 receptor selectivity: in words.
Assay [2] relates to HF patients (adult population). The conditions noted are these: cited from earlier work.
In assay [3] the test system is children with heart failure. Conditions: Pediatric Carvedilol Trial, cited from earlier work.
In the next assay the test system is Akt. Nature of the assay: Phosphorylation of Akt in young mouse hearts by Western blot. Conditions: young mice, heart, one week of treatment, versus placebo. The class given is in vivo. As to the method:
(§2) Western blots were performed as previously described by the inventors. Antibodies for total and phosphorylated PLB were diluted 1:15000 and antibodies for total and phosphorylated Akt were diluted 1:1000 in 1×TBS (20 mM Tris 500 mM NaCl pH 7.5) containing 3% BSA and 0.1% tween and incubated with the blot overnight at 4° C.
(§3) To address hypothesis (iv) above a third study was performed in the young mice to provide evidence of the beneficial effects of exogenous β2-selective agonism with fenoterol. […] The methodology was identical to that outlined in the carvedilol and metoprolol studies above. Protein was isolated from the placebo, fenoterol and isoproterenol treated mouse hearts and phosphorylation of Akt and expression of Caspase 3 was determined to confirm the beneficial effects of fenoterol treatment.

A further assay relates to caspase 3. Nature of the assay: Caspase 3 levels in young mouse hearts by Western blot. It counts as in vivo. The conditions noted are these: young mice, heart, one week of treatment, versus placebo. The method, then:
as §2, §3

Assay [4] relates to adult mouse models of myocardial infarction. The conditions noted are these: adult mouse models of myocardial infarction (Ahmet, 2004; 2005; 2008); cited from earlier work.
For assay [5], the system named is phospholamban (Ser16, Thr17). The assay can be described thus: Phospholamban phosphorylation in mouse hearts by Western blot. The class given is in vivo. The conditions noted are these: isoproterenol challenged versus control. The method, then:
as §2, §1

With `CC(C)NCC(O)COc1ccc(COCCOC(C)C)cc1` (stereo not shown) [Bisoprolol], the “pathologic growth response to isoproterenol” value in assay [1] (young mice) is reported as “significantly suppressed”; in assay [1] (young mice, listed as bisoprolol), “significant blunting”. Moreover, the β1 receptor selectivity entry with β1 and β2 receptors is reported as “higher selectivity than Metoprolol”. For the same compound, in assay [2] (CIBIS trial), the “Mortality Benefit, RR reduction” value is reported as 32% RR.

`COc1ccccc1OCCNCC(O)COc1cccc2[nH]c3ccccc3c12` (stereo not shown) [Carvedilol]: in assay [1], the “heart weight to body weight ratio (HW/BW), response to ISO” value is “lower”. Also, the “cardiac growth response to ISO (HW/BW)” value in assay [1] (young mice) is recorded as “no benefit”; in assay [1] (young mice, listed as Coreg), “no influence”. The “blockade of β2 receptors relative to β1 receptors” value with β1 and β2 receptors (β2 over β1) is “up to 7 times”. The “Mortality Benefit, RR reduction” value in assay [2] (CAPRICORN trial) is listed as 23% RR; in assay [2] (COPERNICUS trial), 35% RR; in assay [2] (US Coreg HF trial) it was 65% RR. Further, the results for the “Outcome (clinical benefit)” value in assay [3] (listed as carvedilol) and in assay [3] were “lack of clinical benefit” and “no clinical benefit”, respectively.

On to `CC(Cc1ccc(O)cc1)NCC(O)c1cc(O)cc(O)c1` (stereo not shown) [Fenoterol, fenoterol], for which the “phosphorylation of Akt” value is given as “induced” in the assay on Akt and “increasing” in the assay with Akt (listed as fenoterol). Also, the “caspase 3 levels” value in the assay on caspase 3 (listed as fenoterol) is on record as “maintaining only basal levels; also recorded: did not induce”. In addition, the “myocardial remodeling and function” value in assay [4] was “improvements in myocardial remodeling and function”.

Regarding `CC(C)NCC(O)c1ccc(O)c(O)c1` (stereo not shown) [Isoproterenol, isoproterenol], the “pathologic cardiac growth produced by the agonist” value in assay [1] (young and old mice, 30 mg/kg/day for 7 days, subcutaneous miniosmotic pump) is “significant pathologic cardiac growth”. For the same compound, the “growth response elicited by the agonist” value in assay [1] (young mice, placebo (no β-blocker) treated animals, bisoprolol and nebivolol cohorts) is reported as “significant growth response”. Moreover, the “phospholamban phosphorylation at serine 16” value was “dephosphorylated; also recorded: lower” in assay [5] (old (adult) mice) and “unchanged” in assay [5] (young mice). Moreover, the “phospholamban phosphorylation at threonine 17” value in assay [5] (old (adult) mice) was “dephosphorylated; also recorded: lower”; in assay [5] (young mice), “unchanged”. Also, the “phosphorylation of Akt” value with Akt is on record as “decreased”. In addition, in the assay on caspase 3, the “caspase 3 levels” value was “increased”.

In the case of `COCCc1ccc(OCC(O)CNC(C)C)cc1` (stereo not shown) [Metoprolol], in assay [1], the “heart weight to body weight ratio (HW/BW), response to ISO” value is listed as “lower”. Further, the “cardiac growth response to ISO (HW/BW)” value in assay [1] (young mice) was “blunted”; in assay [1] (young mice, listed as metoprolol), “demonstrated benefit”. For the same compound, the β1 receptor selectivity result with β1 and β2 receptors is recorded as “selectively blocks the β1 receptor”. The “Mortality Benefit, RR reduction” value in assay [2] (MERIT-HF trial) is 34% RR.

Turning to `OC(CNCC(O)C1CCc2cc(F)ccc2O1)C1CCc2cc(F)ccc2O1` (stereo not shown) [Nebivolol], the “pathologic growth response to isoproterenol” value in assay [1] (young mice) is recorded as “significantly suppressed”; in assay [1] (young mice, listed as nebivolol), “significant blunting”. Besides, the β1 receptor selectivity entry with β1 and β2 receptors was “higher selectivity than Metoprolol”. Further, in assay [2] (SENIORS trial), the “Mortality or Hospitalization Benefit, RR reduction” value is reported as 14% RR.

The values above are taken from patent publication US9456997B2, “Selective inhibition of β1-adrenergic receptors for the treatment of pediatric heart failure” (THE REGENTS OF THE UNIVERSITY OF COLORADO, A BODY CORPORATE, priority 2010, dated 2016).
